Reference: US20240132431A1, “METHOD FOR ALKYLATING ACIDIC FUNCTIONAL GROUP” (Chugai Seiyaku Kabushiki Kaisha, priority 2021, published 2024)

Target: T1, Bcl-2 protein (Recombinant Human Bcl-2 Protein) (Homo sapiens, UniProt P10415)
T1 construct: purchased Novus NBP2-34889
Assay: Binding evaluation of mixture library compounds to Bcl-2 using AS-MS (affinity selection mass spectrometry)
Conditions: for ASMS ratio (%) n = 1 / ASMS ratio (%) n = 2: ASMS Ratio(%)=(A−C)/B×100; for ASMS ratio (%) n = 1: replicate n = 1; for ASMS ratio (%) n = 2: replicate n = 2
In short: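 Pooled library of ~1200 compounds ([…] each, final) incubated with recombinant human Bcl-2 (20 μM final) in Tris-HCl pH 7.4, NaCl, Tween-20, DTT buffer, dark, 23° C., 1 h. Bound fraction recovered by SEC spin column, organic extraction, reversed-phase LC/MS. ASMS Ratio (%) = (A−C)/B×100 versus protein-free standard and SEC blank.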

[1] = AS-MS, mixture of 1200 compounds, Bcl-2
[2] = AS-MS on the mixture of 1200 library compounds

T1 sequence (P10415 whole entry): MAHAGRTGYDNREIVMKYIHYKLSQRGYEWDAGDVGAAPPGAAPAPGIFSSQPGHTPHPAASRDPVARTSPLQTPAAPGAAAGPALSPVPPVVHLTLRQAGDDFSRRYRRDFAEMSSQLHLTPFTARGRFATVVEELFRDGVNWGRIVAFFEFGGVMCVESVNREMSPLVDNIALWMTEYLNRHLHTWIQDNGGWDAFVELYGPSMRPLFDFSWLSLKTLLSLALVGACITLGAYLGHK

Compound: CCOc1cccc(-c2ccc(CN3CCN(c4ccc(C(=O)NCC(F)(F)F)cc4)CC3)cc2C)c1 [B1K047-01]
- ASMS ratio (%) n = 1 [1]: 3.3%
- ASMS ratio (%) n = 2 [1]: 0.5%

Compound: CCOc1cncc(-c2ccc(CN3CCN(c4ccc(C(=O)NS(=O)(=O)CCC(F)(F)F)nn4)CC3)c3ccccc23)c1 [B2N092-01]
- ASMS ratio (%) (n = 1): 0.0%
- ASMS ratio (%) (n = 2): 0.0%

Compound: CCOc1cncc(-c2csc(C(=O)N3CCN(c4ccc(C(=O)NS(=O)(=O)c5ccc(NCCSc6ccccc6)c(C(F)(F)F)c5)nn4)CC3)c2)c1 [B2R002-01, 6-[4-[4-(5-Ethoxypyridin-3-yl)thiophene-2-carbonyl]piperazin-1-yl]-N-[4-(2-phenylsulfanylethylamino)-3-(trifluoromethyl)phenyl]sulfonylpyridazine-3-carboxamide]
- ASMS ratio (%) (n = 1): 0.0%
- ASMS ratio (%) (n = 2): 0.0%

Compound: CCOc1cccc(-c2cc(CN3CCN(c4ccc(C(=O)NCC56CC7CC(CC(C7)C5)C6)cc4)CC3)cc(OCC)c2)c1 [B1A055-01, N-(1-Adamantylmethyl)-4-[4-[[3-ethoxy-5-(3-ethoxyphenyl)phenyl]methyl]piperazin-1-yl]benzamide]
- ASMS ratio (%) n = 1 [1]: −0.1%
- ASMS ratio (%) n = 2 [1]: −14.4%

Compound: CCOc1cncc(C#Cc2cc(C(=O)N3CCN(c4ccc(C(=O)NS(=O)(=O)c5ccc(NCCSc6ccccc6)c([N+](=O)[O-])c5)cc4)CC3)cc(C(F)(F)F)c2)c1 [B2Q042-01, 4-[4-[3-[2-(5-Ethoxypyridin-3-yl)ethynyl]-5-(trifluoromethyl)benzoyl]piperazin-1-yl]-N-[3-nitro-4-(2-phenylsulfanylethylamino)phenyl]sulfonylbenzamide]
- ASMS ratio (%) n = 1 (AS-MS, mixture library, Bcl-2): 26.1%
- ASMS ratio (%) n = 2 (AS-MS, mixture library, Bcl-2): 19.5%

Compound: CCOc1cccc(-c2cc(CN3CCN(c4ccc(C(=O)NS(C)(=O)=O)nn4)CC3)cc(OC(C)C)c2)c1 [B2I083-01, 6-[4-[[3-(3-Ethoxyphenyl)-5-propan-2-yloxyphenyl]methyl]piperazin-1-yl]-N-methylsulfonylpyridazine-3-carboxamide]
- ASMS ratio (%) (n = 1): 0.0%
- ASMS ratio (%) (n = 2): 0.0%

Compound: CCOc1cccc(-c2csc(C(=O)N3CCN(c4ccc(C(=O)NS(=O)(=O)c5ccc(NCCSc6ccccc6)c([N+](=O)[O-])c5)nn4)CC3)c2)c1 [B2Q001-01, 6-[4-[4-(3-Ethoxyphenyl)thiophene-2-carbonyl]piperazin-1-yl]-N-[3-nitro-4-(2-phenylsulfanylethylamino)phenyl]sulfonylpyridazine-3-carboxamide]
- ASMS ratio (%) n = 1 (AS-MS, mixture library, Bcl-2): 0.0%
- ASMS ratio (%) n = 2 (AS-MS, mixture library, Bcl-2): 0.0%

Compound: CCOc1cccc(-c2ccccc2CCC(=O)N2CCN(c3ccc(C(=O)NS(=O)(=O)c4ccc(NCCSc5ccccc5)c(C(F)(F)F)c4)nn3)CC2)c1 [B2R011-01, 6-[4-[3-[2-(3-Ethoxyphenyl)phenyl]propanoyl]piperazin-1-yl]-N-[4-(2-phenylsulfanylethylamino)-3-(trifluoromethyl)phenyl]sulfonylpyridazine-3-carboxamide]
- ASMS ratio (%) (n = 1): 17.7%
- ASMS ratio (%) (n = 2): −1.3%

Compound: CCOc1cncc(-c2cc(CN3CCN(c4ccc(C(=O)N(C)CC56CC7CC(CC(C7)C5)C6)cc4)CC3)cc(C(F)(F)F)c2)c1 [B3A062-01, N-(1-Adamantylmethyl)-4-[4-[[3-(5-ethoxypyridin-3-yl)-5-(trifluoromethyl)phenyl]methyl]piperazin-1-yl]-N-methylbenzamide]
- ASMS ratio (%) n = 1 [2]: 2.2%
- ASMS ratio (%) n = 2 [2]: 2.8%

Compound: CCOc1cncc(-c2ccc(C(C)N3CCN(c4ccc(C(=O)NCC(F)(F)F)cc4)CC3)c(F)c2)c1 (stereo not shown) [B1K100-01, 4-[4-[1-[4-(5-Ethoxypyridin-3-yl)-2-fluorophenyl]ethyl]piperazin-1-yl]-N-(2,2,2-trifluoroethyl)benzamide]
- ASMS ratio (%) n = 1 [1]: 0.0%
- ASMS ratio (%) n = 2 [1]: 0.0%

Compound: CCOc1cccc(-c2ccc(C(C)N3CCN(c4ccc(C(=O)NS(=O)(=O)C(C)(C)C)cc4)CC3)cc2)c1 (stereo not shown) [B2L097-01, N-tert-Butylsulfonyl-4-[4-[1-[4-(3-ethoxyphenyl)phenyl]ethyl]piperazin-1-yl]benzamide]
- ASMS ratio (%) (n = 1): 0.0%
- ASMS ratio (%) (n = 2): 0.0%

Compound: CCOc1cncc(-c2csc(CN3CCN(c4ccc(C(=O)Nc5ccc(OC)cc5)cc4)CC3)c2)c1 [B1O068-01, 4-[4-[[4-(5-Ethoxypyridin-3-yl)thiophen-2-yl]methyl]piperazin-1-yl]-N-(4-methoxyphenyl)benzamide]
- ASMS ratio (%) n = 1 [2]: 1.9%
- ASMS ratio (%) n = 2 [2]: −1.1%

Compound: 6-[4-[4-(5-Ethoxypyridin-3-yl)naphthalene-1-carbonyl]piperazin-1-yl]-N-propylpyridazine-3-carboxamide [B1M072-01]
- ASMS ratio (%) n = 1 [1]: 0.0%
- ASMS ratio (%) n = 2 [1]: 1.9%

Compound: CCOc1cncc(-c2cc(C(=O)N3CCN(c4ccc(C(=O)NS(=O)(=O)CCC(F)(F)F)nn4)CC3)cc(C(C)(C)C)c2)c1 [B2N016-01, 6-[4-[3-tert-Butyl-5-(5-ethoxypyridin-3-yl)benzoyl]piperazin-1-yl]-N-(3,3,3-trifluoropropylsulfonyl)pyridazine-3-carboxamide]
- ASMS ratio (%) (n = 1): 0.0%
- ASMS ratio (%) (n = 2): 0.0%

Compound: CCOc1cncc(-c2cc(C(=O)N3CCN(c4ccc(C(=O)NS(=O)(=O)CCC(F)(F)F)cc4)CC3)cc(C(F)(F)F)c2)c1 [B2N040-01, 4-[4-[3-(5-Ethoxypyridin-3-yl)-5-(trifluoromethyl)benzoyl]piperazin-1-yl]-N-(3,3,3-trifluoropropylsulfonyl)benzamide]
- ASMS ratio (%) (n = 1): 0.0%
- ASMS ratio (%) (n = 2): 0.0%

Compound: CCOc1cccc(-c2ccc(CN3CCN(c4ccc(C(=O)N(CC)CC)nn4)CC3)cc2F)c1 [B4J077-01, 6-[4-[[4-(3-Ethoxyphenyl)-3-fluorophenyl]methyl]piperazin-1-yl]-N,N-diethylpyridazine-3-carboxamide]
- ASMS ratio (%) n = 1 (AS-MS, mixture library, Bcl-2): 1.2%
- ASMS ratio (%) n = 2 (AS-MS, mixture library, Bcl-2): −5.5%

Compound: CCOc1cncc(-c2cc(C(=O)N3CCN(c4ccc(C(=O)NS(=O)(=O)c5ccc(NCCSc6ccccc6)c([N+](=O)[O-])c5)cc4)CC3)cc(C(C)(C)C)c2)c1 [B2Q038-01, 4-[4-[3-tert-Butyl-5-(5-ethoxypyridin-3-yl)benzoyl]piperazin-1-yl]-N-[3-nitro-4-(2-phenylsulfanylethylamino)phenyl]sulfonylbenzamide]
- ASMS ratio (%) n = 1 (AS-MS, mixture library, Bcl-2): 3.3%
- ASMS ratio (%) n = 2 (AS-MS, mixture library, Bcl-2): 0.4%

Compound: CCOc1cccc(-c2cc(C(=O)N3CCN(c4ccc(C(=O)N(C)CC56CC7CC(CC(C7)C5)C6)cc4)CC3)cc(C(F)(F)F)c2)c1 [B3A039-01, N-(1-Adamantylmethyl)-4-[4-[3-(3-ethoxyphenyl)-5-(trifluoromethyl)benzoyl]piperazin-1-yl]-N-methylbenzamide]
- ASMS ratio (%) n = 1 [2]: 3.8%
- ASMS ratio (%) n = 2 [2]: 0.0%

Compound: CCOc1cncc(-c2cc(CN3CCN(c4ccc(C(=O)Nc5ccc(OC)cc5)cc4)CC3)cc(OC(C)C)c2)c1 [B1O058-01]
- ASMS ratio (%) n = 1 [2]: −3.5%
- ASMS ratio (%) n = 2 [2]: 4.4%

Compound: CCOc1cccc(-c2cc(CN3CCN(c4ccc(C(=O)N(CC)CC)cc4)CC3)cc(OC(F)(F)F)c2)c1 [B4J063-01, 4-[4-[[3-(3-Ethoxyphenyl)-5-(trifluoromethoxy)phenyl]methyl]piperazin-1-yl]-N,N-diethylbenzamide]
- ASMS ratio (%) n = 1 (AS-MS, mixture library, Bcl-2): 4.5%
- ASMS ratio (%) n = 2 (AS-MS, mixture library, Bcl-2): 0.1%
